Experimental findings from US20230116972A1, “CD38 MODULATORS AND METHODS OF USE THEREOF” (Cytokinetics, Inc., priority 2021, published 2023) are described below.

What is called IC50 is the concentration that inhibits the measured activity by half.

One experiment concerns the target T1, human CD38 (Homo sapiens, UniProt P28907).
T1 sequence (P28907 1-300): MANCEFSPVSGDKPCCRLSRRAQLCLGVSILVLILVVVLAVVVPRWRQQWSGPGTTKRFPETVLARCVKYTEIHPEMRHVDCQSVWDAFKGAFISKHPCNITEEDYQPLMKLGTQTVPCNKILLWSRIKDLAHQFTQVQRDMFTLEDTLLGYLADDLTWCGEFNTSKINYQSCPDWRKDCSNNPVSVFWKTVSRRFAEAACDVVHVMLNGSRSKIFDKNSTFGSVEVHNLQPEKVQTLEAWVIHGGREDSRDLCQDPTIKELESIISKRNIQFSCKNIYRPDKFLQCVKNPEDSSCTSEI
The experiment in a line: human recombinant CD38 enzyme assay (hydrolysis of NAD+). It counts as biochemical. As to conditions: human recombinant CD38, 0.4 nM enzyme, 62.5 μM NAD+; read-out: hCD38 BioChem IC50. In short, it runs like this: (§1)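 Residual NAD+ after 60 min of cell-free hydrolysis by recombinant mouse or human CD38 at ambient temperature, measured over a dose range. Detection used ADH conversion to NADH, then diaphorase-coupled resazurin-to-resorufin fluorescence (Ex/Em 540/590 nm).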

Experiment [1] concerns the target T2, endogenous CD38 in HL60 cells (Homo sapiens, UniProt P28907).
T2 construct: endogenous in cells; host or cells: HL60 (leukemic cells, treated with all-trans retinoic acid)
T2 sequence (P28907 1-300): T1 sequence (P28907 1-300)
The experiment in a line: cellular CD38 assay in HL60 cells (cellular NAD levels). It counts as cell-based. As to conditions: all-trans retinoic acid, 24 hours, read-out: hCD38 HL60 ATRA NAD Cell Diaphorase IC50. In short, it runs like this:
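Endogenous CD38 inhibition is inferred from NAD levels in HL60 cells after 24 h compound exposure at 20000 cells per well. A lytic cycling readout (0.2 U/mL diaphorase, 0.8 U/mL alcohol dehydrogenase, resazurin, FMN, ethanol, 0.2% Triton X-100, Tris/EDTA pH 8.4) ran 60 min at ambient temperature. Resorufin fluorescence was read at 540/590 nm.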

For another experiment, the target named is T3, mouse CD38 (Mus musculus, UniProt P56528).
T3 sequence (P56528 1-304): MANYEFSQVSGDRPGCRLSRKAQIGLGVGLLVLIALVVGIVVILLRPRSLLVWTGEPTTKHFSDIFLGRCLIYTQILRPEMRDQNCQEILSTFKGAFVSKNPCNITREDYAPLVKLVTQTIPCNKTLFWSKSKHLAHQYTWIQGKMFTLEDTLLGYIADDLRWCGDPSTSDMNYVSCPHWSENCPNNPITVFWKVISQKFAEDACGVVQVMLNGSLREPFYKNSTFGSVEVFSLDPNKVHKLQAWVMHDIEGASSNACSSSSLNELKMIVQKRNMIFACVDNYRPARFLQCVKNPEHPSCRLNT
Put plainly: mouse recombinant CD38 enzyme assay (hydrolysis of NAD+). It counts as biochemical. The settings on record: read-out: mCD38 BioChem IC50. The essentials: as §1

As to `COCCO[C@H]1CC[C@H](NC(=O)c2cc(C)nc(-c3cncn3C)n2)CC1` [Compound 155, N-((1r,4r)-4-(2-methoxyethoxy)cyclohexyl)-6-methyl-2-(1-methyl-1H-imidazol-5-yl)pyrimidine-4-carboxamide], the values for the IC50 (at human CD38; in experiment [1]; at mouse CD38) were 24 nM, 2300 nM and 1 nM, respectively.

Regarding `Cc1cc(C(=O)N[C@H]2CC[C@H](C)CC2)nc(-n2ccnc2)n1` [Compound 119, 2-(1H-imidazol-1-yl)-6-methyl-N-((1r,4r)-4-methylcyclohexyl)pyrimidine-4-carboxamide], the IC50 at human CD38 is 10 nM; in experiment [1], 1580 nM; on mouse CD38, 1 nM.

In the case of `Cc1cc(C(=O)Nc2cccnc2)nc(-n2ccnc2)c1` [Compound 32, 6-(1H-imidazol-1-yl)-4-methyl-N-(pyridin-3-yl)picolinamide], the IC50 was 3 nM on human CD38, 264 nM in experiment [1] and 1 nM at mouse CD38.

On to `CO[C@H]1CC[C@H](NC(=O)c2cc(C)nc(-n3ccnc3)n2)CC1` [Compound 118, 2-(1H-imidazol-1-yl)-N-((1r,4r)-4-methoxycyclohexyl)-6-methylpyrimidine-4-carboxamide], for which the 50% inhibitory concentration (IC50) at human CD38 worked out at 17 nM; in experiment [1] it was 1620 nM; on mouse CD38 it was 3 nM.

On to `O=C(Nc1ccc(C(F)(F)F)nc1)c1cncc(-n2ccnc2)n1` [Compound 55, 6-(1H-imidazol-1-yl)-N-(6-(trifluoromethyl)pyridin-3-yl)pyrazine-2-carboxamide], for which the concentration for half-maximal inhibition (IC50) stood at 5 nM on human CD38, 522 nM in experiment [1] and 10 nM at mouse CD38.

Regarding `Cn1cncc1-c1nc(C(=O)N[C@H]2C[C@H](c3ccccc3)C2)cc(C2CCOCC2)n1` [Compound 230, 2-(1-methyl-1H-imidazol-5-yl)-N-((1r,3r)-3-phenylcyclobutyl)-6-(tetrahydro-2H-pyran-4-yl)pyrimidine-4-carboxamide], the IC50 on human CD38 turned out to be 4.3 nM; in experiment [1], 1460 nM; on mouse CD38 it was 1.7 nM.

On to `O=C(N[C@H]1CC[C@H](OC(F)F)CC1)c1nccc(-n2ccnc2)n1` [Compound 293, N-((1r,4r)-4-(difluoromethoxy)cyclohexyl)-4-(1H-imidazol-1-yl)pyrimidine-2-carboxamide], for which the half-maximal inhibitory concentration (IC50) at human CD38 worked out at 58.5 nM; in experiment [1], 2830 nM; at mouse CD38, 36.2 nM.

On to `Cn1cncc1-c1ccnc(C(=O)N[C@H]2C[C@H](c3ccnc(C(F)(F)F)c3)C2)n1` [Compound 270, 4-(1-methyl-1H-imidazol-5-yl)-N-((1r,3r)-3-(2-(trifluoromethyl)pyridin-4-yl)cyclobutyl)pyrimidine-2-carboxamide], for which the IC50 at human CD38 came to 13.7 nM; in experiment [1], 1130 nM; at mouse CD38 it was 43.9 nM.

As to `O=C(N[C@H]1C[C@H](c2cccc(F)c2)C1)c1nccc(-n2ccnc2)n1` [Compound 237, N-((1r,3r)-3-(3-fluorophenyl)cyclobutyl)-4-(1H-imidazol-1-yl)pyrimidine-2-carboxamide], the 50% inhibitory concentration (IC50) at human CD38 was determined as 33.8 nM; in experiment [1], 2200 nM; at mouse CD38 it was 29.5 nM.

In the case of `CC(C)(O)[C@H]1CC[C@H](NC(=O)c2cccc(-n3ccnc3)n2)CC1` [Compound 134, N-((1r,4r)-4-(2-Hydroxypropan-2-yl)cyclohexyl)-6-(1H-imidazol-1-yl)picolinamide], the half-inhibitory concentration (IC50) on human CD38 is 37 nM; in experiment [1] it was 3020 nM; on mouse CD38, 5 nM.

As to `Cn1cncc1-c1nccc(C(=O)Nc2ccc(C(F)F)nc2)n1` [Compound 94, N-(6-(difluoromethyl)pyridin-3-yl)-2-(1-methyl-1H-imidazol-5-yl)pyrimidine-4-carboxamide], the 50% inhibitory concentration (IC50) turned out to be 2 nM on human CD38, 241 nM in experiment [1] and 2 nM at mouse CD38.

In the case of `CCO[C@H]1C[C@H](NC(=O)c2nccc(-c3cncn3C)n2)C1` [Compound 299, N-((1r,3r)-3-ethoxycyclobutyl)-4-(1-methyl-1H-imidazol-5-yl)pyrimidine-2-carboxamide], the values for the IC50 (at human CD38; in experiment [1]; at mouse CD38) were 288 nM, 4100 nM and 74.8 nM, respectively.

Consider `O=C(NC1CCN(c2ccccc2)CC1)c1nccc(-n2ccnc2)n1` [Compound 263, 4-(1H-imidazol-1-yl)-N-(1-phenylpiperidin-4-yl)pyrimidine-2-carboxamide], for which the figures for the IC50 (on human CD38; in experiment [1]; on mouse CD38) were 252 nM, 12500 nM and 270 nM, respectively.

In the case of `Cn1cncc1-c1ccnc(C(=O)N[C@H]2C[C@H](C(C)(C)O)C2)n1` [Compound 284, N-((1r,3r)-3-(2-hydroxypropan-2-yl)cyclobutyl)-4-(1-methyl-1H-imidazol-5-yl)pyrimidine-2-carboxamide], the IC50 on human CD38 is 277 nM; in experiment [1] it was 11000 nM; at mouse CD38, 59.7 nM.

With `Cn1cncc1-c1nc(C(=O)NC2CCC(F)(F)CC2)cc(C2CCOCC2)n1` [Compound 200, N-(4,4-difluorocyclohexyl)-2-(1-methyl-1H-imidazol-5-yl)-6-(tetrahydro-2H-pyran-4-yl)pyrimidine-4-carboxamide], the figures for the IC50 (at human CD38; in experiment [1]; on mouse CD38) were 9.3 nM, 2310 nM and 1.9 nM, respectively.

Consider `O=C(Nc1cccnc1)c1ccnc(-n2ccnc2)c1` [Compound 10, 2-(1H-imidazol-1-yl)-N-(pyridin-3-yl)isonicotinamide], for which the results for the half-maximal inhibitory concentration (IC50) (on human CD38; in experiment [1]; on mouse CD38) were 1190 nM, 4350 nM and 433 nM, respectively.

As to `O=C(NC12CC(C1)C2)c1cccc(-n2ccnc2)n1` [Compound 16, N-(bicyclo[1.1.1]pentan-1-yl)-6-(1H-imidazol-1-yl)picolinamide], the IC50 at human CD38 was found to be 1510 nM; in experiment [1], 7390 nM; at mouse CD38, 760 nM.

Turning to `COCCOc1cc(C(=O)Nc2ccc(C(F)(F)F)nc2)nc(-c2cncn2C)n1` [Compound 267, 6-(2-methoxyethoxy)-2-(1-methyl-1H-imidazol-5-yl)-N-(6-(trifluoromethyl)pyridin-3-yl)pyrimidine-4-carboxamide], the IC50 was 2.5 nM on human CD38, 403 nM in experiment [1] and 0.3 nM on mouse CD38.

In the case of `O=C(Nc1ccc(C(F)F)nc1)c1cc(C(F)(F)F)nc(-c2cncs2)n1` [Compound 116, N-(6-(difluoromethyl)pyridin-3-yl)-2-(thiazol-5-yl)-6-(trifluoromethyl)pyrimidine-4-carboxamide], the figures for the IC50 (on human CD38; in experiment [1]; at mouse CD38) were 507 nM, 8160 nM and 185 nM, respectively.

Take `O=C(Nc1cccnc1)c1cccc(-n2ccnc2)c1` [Compound 9, 3-(1H-imidazol-1-yl)-N-(pyridin-3-yl)benzamide]: the IC50 at human CD38 worked out at 1240 nM; in experiment [1], 5980 nM; on mouse CD38, 432 nM.

`CO[C@H]1CC[C@H](NC(=O)c2cc(C(C)C)nc(-c3cncn3C)n2)CC1` [Compound 171, 6-isopropyl-N-((1r,4r)-4-methoxycyclohexyl)-2-(1-methyl-1H-imidazol-5-yl)pyrimidine-4-carboxamide]: the IC50 worked out at 15 nM at human CD38, 3730 nM in experiment [1] and 3 nM at mouse CD38.

For the compound `CC(C)(O)c1ccc(NC(=O)c2nccc(-n3ccnc3)n2)cc1` [Compound 357, N-(4-(2-hydroxypropan-2-yl)phenyl)-4-(1H-imidazol-1-yl)pyrimidine-2-carboxamide], the results for the IC50 (at human CD38; in experiment [1]; on mouse CD38) were 5.7 nM, 940 nM and 10.2 nM, respectively.

As to `COCCO[C@H]1CC[C@H](NC(=O)c2cccc(-c3cncn3C)n2)CC1` [Compound 65, N-(4-(2-methoxyethoxy)cyclohexyl)-6-(1-methyl-1H-imidazol-5-yl)picolinamide], the IC50 is 224 nM on human CD38, 7690 nM in experiment [1] and 62 nM at mouse CD38.

In the case of `Cn1cncc1-c1ccnc(C(=O)N[C@H]2CCN(c3ccccc3)C2)n1` [Compound 246, (S)-4-(1-methyl-1H-imidazol-5-yl)-N-(1-phenylpyrrolidin-3-yl)pyrimidine-2-carboxamide], the half-inhibitory concentration (IC50) is 82.9 nM on human CD38, 8770 nM in experiment [1] and 61.8 nM on mouse CD38.

For the compound `NC(=O)c1cncn1-c1cccc(C(=O)Nc2ccc(C(F)(F)F)nc2)n1` [Compound 66, 6-(5-carbamoyl-1H-imidazol-1-yl)-N-(6-(trifluoromethyl)pyridin-3-yl)picolinamide], the IC50 came out at 91 nM on human CD38, 3430 nM in experiment [1] and 190 nM at mouse CD38.
